Experiments:
KRAS G12D = KRAS G12D (Homo sapiens, UniProt P01116, G12D); experiment: GDP-GTP exchange assay (KRAS G12D); assay type: biochemical; conditions: bodipy-GDP/GppNHp exchange with SOS1; 4 h pre-incubation, 2 h reaction;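 also: one dagger IC50 up to 100 nM and two daggers above 100 nM up to 1 μM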
Procedure, shortened: (§1)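 IC50 came from a four-parameter fit of fluorescence loss (485/520 nm) as SOS1 (150 nM) swapped bodipy-GDP for GppNHp (500 μM) on 2.5 nM KRAS, final concentrations. Compounds were pre-incubated 4 h at r.t. (pH 7.5 Hepes, 10 mM MgCl2); exchange ran 2 h (G12D) or 3 h (G12V).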

KRAS G12V = KRAS G12V (Homo sapiens, UniProt P01116, G12V); experiment: GDP-GTP exchange assay (KRAS G12V); assay type: biochemical; conditions: bodipy-GDP/GppNHp exchange with SOS1; 3 h incubation after GppNHp-SOS1;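 also: one dagger IC50 up to 100 nM and two daggers above 100 nM up to 1 μM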
Procedure, shortened: as §1

[1] = Caco2 assay (permeability, Papp A-B); assay type: in vitro ADME; conditions: human, Caco-2, absorptive direction (A-B), 50 μM test compound, 4% BSA in receiver
Procedure, shortened: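 Absorptive (A-B) Papp: 50 μM test compound in HBSS added to apical side of 22-25-day Caco-2 monolayers (TEER 300 Ω·cm^2), receiver buffer containing 4% BSA. After 120 min at 37 °C, 5% CO2, both sides analysed by LCMS; Papp calculated from flux rate normalized to area and donor amount.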

Chain of KRAS G12D (P01116 1-188 isoform P01116-2 G12D): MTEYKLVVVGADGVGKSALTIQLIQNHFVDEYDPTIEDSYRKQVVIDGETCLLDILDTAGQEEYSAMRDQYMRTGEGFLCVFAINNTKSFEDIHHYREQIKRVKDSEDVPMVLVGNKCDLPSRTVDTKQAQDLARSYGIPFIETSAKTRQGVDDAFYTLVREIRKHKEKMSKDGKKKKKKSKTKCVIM
Chain of KRAS G12V (P01116 1-188 isoform P01116-2 G12V): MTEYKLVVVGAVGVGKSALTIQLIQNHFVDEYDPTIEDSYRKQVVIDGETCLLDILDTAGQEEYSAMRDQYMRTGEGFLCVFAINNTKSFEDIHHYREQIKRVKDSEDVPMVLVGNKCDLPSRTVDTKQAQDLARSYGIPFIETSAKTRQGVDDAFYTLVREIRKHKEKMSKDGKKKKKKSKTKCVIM

| SMILES | G12D_exchange (KRAS_G12D exchange assay IC50) (KRAS G12D) | G12V_exchange (KRAS_G12V exchange assay IC50) (KRAS G12V) | Papp A→B at 120 min, 50 μM [1] [×10⁻⁶ cm/s] |
| --- | --- | --- | --- |
| Cc1sc(N2C[C@@H]3C[C@H](C2)N(C(=O)C2CC2)[C@H]3c2cc3c(C)nc4c(F)c(-c5cccc(Cl)c5Cl)c(CCC#N)cc4c3n2[C@H]2[C@H]3CN[C@@H]2C3)nc1C(C)(F)F (atropisomer, axis not shown; (Ra)) [Example 103, 3-((Ra)-1-((1R,4R,5S)-2-azabicyclo[2.1.1]hexan-5-yl)-2-((1S,5R,7R)-6-(cyclopropanecarbonyl)-3-(4-(1,1-difluoroethyl)-5-methylthiazol-2-yl)-3,6-diazabicyclo[3.2.1]octan-7-yl)-7-(2,3-dichlorophenyl)-6-fluoro-4-methyl-1H-pyrrolo[3,2-c]quinolin-8-yl)propanenitrile] | † | † | ≤ 0.5 |
| Cc1nc2c(F)c(-c3cccc(Cl)c3Cl)c(CCC#N)cc2c2c1cc([C@H]1[C@H]3C[C@H](CN(c4cnsc4)C3)N1C(=O)C1CC1)n2[C@H]1[C@H]2CN[C@@H]1C2 (atropisomer, axis not shown; (Ra)) [Example 104, 3-((Ra)-1-((1R,4R,5S)-2-azabicyclo[2.1.1]hexan-5-yl)-2-((1S,5R,7R)-6-(cyclopropanecarbonyl)-3-(isothiazol-4-yl)-3,6-diazabicyclo[3.2.1]octan-7-yl)-7-(2,3-dichlorophenyl)-6-fluoro-4-methyl-1H-pyrrolo[3,2-c]quinolin-8-yl)propanenitrile] | † | † | ≤ 0.5 |
| Cc1nc2c(F)c(-c3cccc(Cl)c3Cl)c(CCC#N)cc2c2c1cc([C@H]1[C@H]3C[C@H](CN(c4cc(C)n(C)n4)C3)N1C(=O)C1CC1)n2[C@H]1[C@H]2CN[C@@H]1C2 (atropisomer, axis not shown; (Ra)) [Example 105, 3-((Ra)-1-((1R,4R,5S)-2-azabicyclo[2.1.1]hexan-5-yl)-2-((1S,5R,7R)-6-(cyclopropanecarbonyl)-3-(1,5-dimethyl-1H-pyrazol-3-yl)-3,6-diazabicyclo[3.2.1]octan-7-yl)-7-(2,3-dichlorophenyl)-6-fluoro-4-methyl-1H-pyrrolo[3,2-c]quinolin-8-yl)propanenitrile] | † | † | ≤ 0.5 |
| Cc1nc2c(F)c(-c3cccc(Cl)c3Cl)c(CCC#N)cc2c2c1cc([C@H]1[C@H]3C[C@H](CN(c4ncc(C5CC5)s4)C3)N1C(=O)C1CC1)n2[C@H]1[C@H]2CN[C@@H]1C2 (atropisomer, axis not shown; (Ra)) [Example 106, 3-((Ra)-1-((1R,4R,5S)-2-azabicyclo[2.1.1]hexan-5-yl)-2-((1S,5R,7R)-6-(cyclopropanecarbonyl)-3-(5-cyclopropylthiazol-2-yl)-3,6-diazabicyclo[3.2.1]octan-7-yl)-7-(2,3-dichlorophenyl)-6-fluoro-4-methyl-1H-pyrrolo[3,2-c]quinolin-8-yl)propanenitrile] | † | † | ≤ 0.5 |
| Cc1nc2c(F)c(-c3cccc(Cl)c3Cl)c(CCC#N)cc2c2c1cc([C@H]1[C@H]3C[C@H](CN(C(=O)C4CC4)C3)N1C(=O)C1CC1)n2[C@H]1[C@H]2CN[C@@H]1C2 (atropisomer, axis not shown; (Ra)) [Example 107, 3-((Ra)-1-((1R,4R,5S)-2-Azabicyclo[2.1.1]hexan-5-yl)-2-((1 S,5R,7R)-3,6-di(cyclopropanecarbonyl)-3,6-diazabicyclo[3.2.1]octan-7-yl)-7-(2,3-dichlorophenyl)-6-fluoro-4-methyl-1H-pyrrolo[3,2-c]quinolin-8-yl)propanenitrile] | † | † | ≤ 0.5 |
| COC(=O)N1C[C@@H]2C[C@H](C1)N(C(=O)C1CC1)[C@H]2c1cc2c(C)nc3c(F)c(-c4cccc(Cl)c4Cl)c(CCC#N)cc3c2n1[C@H]1[C@H]2CN[C@@H]1C2 (atropisomer, axis not shown; (Ra)) [Example 108, Methyl (1 S,5R,7R)-7-((Ra)-1-((1R,4R,5S)-2-azabicyclo[2.1.1]hexan-5-yl)-8-(2-cyanoethyl)-7-(2,3-dichlorophenyl)-6-fluoro-4-methyl-1H-pyrrolo[3,2-c]quinolin-2-yl)-6-(cyclopropanecarbonyl)-3,6-diazabicyclo[3.2.1]octane-3-carboxylate] | † | † | ≤ 0.5 |
| Cc1noc(C)c1S(=O)(=O)N1C[C@@H]2C[C@H](C1)N(C(=O)C1CC1)[C@H]2c1cc2c(C)nc3c(F)c(-c4cccc(Cl)c4Cl)c(CCC#N)cc3c2n1[C@H]1[C@H]2CN[C@@H]1C2 (atropisomer, axis not shown; (Ra)) [Example 110, 3-((Ra)-1-((1R,4R,5S)-2-Azabicyclo[2.1.1]hexan-5-yl)-2-((1 S,5R,7R)-6-(cyclopropanecarbonyl)-3-((3,5-dimethylisoxazol-4-yl)sulfonyl)-3,6-diazabicyclo[3.2.1]octan-7-yl)-7-(2,3-dichlorophenyl)-6-fluoro-4-methyl-1H-pyrrolo[3,2-c]quinolin-8-yl)propanenitrile] | † | † | ≤ 0.5 |
| Cc1nc2c(F)c(-c3cccc(Cl)c3Cl)c(CCC#N)cc2c2c1cc([C@H]1[C@H]3C[C@H](CN(S(=O)(=O)N4CCOCC4)C3)N1C(=O)C1CC1)n2[C@H]1[C@H]2CN[C@@H]1C2 (atropisomer, axis not shown; (Ra)) [Example 111, 3-((Ra)-1-((1R,4R,5S)-2-Azabicyclo[2.1.1]hexan-5-yl)-2-((1 S,5R,7R)-6-(cyclopropanecarbonyl)-3-(morpholinosulfonyl)-3,6-diazabicyclo[3.2.1]octan-7-yl)-7-(2,3-dichlorophenyl)-6-fluoro-4-methyl-1H-pyrrolo[3,2-c]quinolin-8-yl)propanenitrile] | †† | † | ≤ 0.5 |
| Cc1nc2c(F)c(-c3cccc(Cl)c3Cl)c(CCC#N)cc2c2c1cc(C1C3CC(CN(C)C3=O)N1C(=O)C1CC1)n2C1C2CNC1C2 (atropisomer, axis not shown; (Ra)) [Example 112, 3-((Ra)-1-((1R,4R,5S)-2-Azabicyclo[2.1.1]hexan-5-yl)-2-((1R,5R,7R)-6-(cyclopropanecarbonyl)-3-methyl-2-oxo-3,6-diazabicyclo[3.2.1]octan-7-yl)-7-(2,3-dichlorophenyl)-6-fluoro-4-methyl-1H-pyrrolo[3,2-c]quinolin-8-yl)propanenitrile] | †† | † | ≤ 0.5 |
| Cc1nc2c(F)c(-c3cccc(Cl)c3Cl)c(CCC#N)cc2c2c1cc(C1C3CC(CN(C4CCCCC4)C3=O)N1C(=O)C1CC1)n2C1C2CNC1C2 (atropisomer, axis not shown; (Ra)) [Example 113, 3-((Ra)-1-((1R,4R,5S)-2-Azabicyclo[2.1.1]hexan-5-yl)-2-((1R,5R,7R)-3-cyclohexyl-6-(cyclopropanecarbonyl)-2-oxo-3,6-diazabicyclo[3.2.1]octan-7-yl)-7-(2,3-dichlorophenyl)-6-fluoro-4-methyl-1H-pyrrolo[3,2-c]quinolin-8-yl)propanenitrile] | ††† | † | ≤ 0.5 |
| Cc1nc2c(F)c(-c3cccc(Cl)c3Cl)c(CCC#N)cc2c2c1cc([C@H]1[C@@H]3COC[C@@H](C3)N1C(=O)C1CC1)n2[C@H]1[C@H]2CN[C@@H]1C2 (atropisomer, axis not shown; (Ra)) [Example 115, 3-((Ra)-1-((1R,4R,5S)-2-Azabicyclo[2.1.1]hexan-5-yl)-2-((1R,5R,7R)-6-(cyclopropanecarbonyl)-3-oxa-6-azabicyclo[3.2.1]octan-7-yl)-7-(2,3-dichlorophenyl)-6-fluoro-4-methyl-1H-pyrrolo[3,2-c]quinolin-8-yl)propanenitrile] | † | † | ≤ 0.5 |
| Cc1nc2c(F)c(-c3cccc(Cl)c3Cl)c(CCC#N)cc2c2c1cc([C@H]1[C@@H]3COC(=O)[C@@H](C3)N1C(=O)C1CC1)n2[C@H]1[C@H]2CN[C@@H]1C2 (atropisomer, axis not shown; (Ra)) [Example 116, 3-((Ra)-1-((1R,4R,5S)-2-Azabicyclo[2.1.1]hexan-5-yl)-2-((1R,5R,7R)-6-(cyclopropanecarbonyl)-4-oxo-3-oxa-6-azabicyclo[3.2.1]octan-7-yl)-7-(2,3-dichlorophenyl)-6-fluoro-4-methyl-1H-pyrrolo[3,2-c]quinolin-8-yl)propanenitrile] | † | † | ≤ 0.5 |
| Cc1nc2c(F)c(-c3cccc(Cl)c3Cl)c(CCC#N)cc2c2c1cc([C@H]1CCN(c3ccccc3)CCN1C(=O)C1CC1)n2[C@H]1[C@H]2CN[C@@H]1C2 (atropisomer, axis not shown; (Ra)) [Example 117, 3-((Ra)-1-((1R,4R,5S)-2-Azabicyclo[2.1.1]hexan-5-yl)-2-((R)-4-(cyclopropanecarbonyl)-1-phenyl-1,4-diazepan-5-yl)-7-(2,3-dichlorophenyl)-6-fluoro-4-methyl-1H-pyrrolo[3,2-c]quinolin-8-yl)propanenitrile] | † | † | > 1 |

Source: patent US20250195536A1, “BICYCLOOCTANE KRAS INHIBITORS” (Incyte Corporation, priority 2023, published 2025)
